PubChem BioAssay (NCI)
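Cultured in 96-well plates, cells were exposed to test compound for 48 hours across five concentrations. Here, GI50 denotes the concentration required for 50% inhibition of growth. The concentration for full growth arrest is given as TGI.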

Experiments:
Assay in all cases: DTP human tumour cell line panel, 48 h
[1] = system: UO-31 renal
[2] = system: CCRF-CEM leukemia
[3] = system: COLO 205 colon
[4] = system: NCI-H460 lung
[5] = system: NCI/ADR-RES ovarian
[6] = system: NCI-H23 lung
[7] = system: HOP-62 NSCLC
[8] = system: ACHN renal
[9] = system: SR leukemia
[10] = system: K-562 leukemia

SMILES	TGI [1] [µM]	TGI [2] [µM]	TGI [3] [µM]	TGI [4] [µM]	TGI [5] [µM]	TGI [6] [µM]	TGI [7] [µM]	TGI [8] [µM]	TGI [9] [µM]	TGI [10] [µM]	GI50 [1] [µM]	GI50 [2] [µM]	GI50 [3] [µM]	GI50 [5] [µM]	GI50 [6] [µM]	GI50 [7] [µM]	GI50 [9] [µM]	GI50 [10] [µM]
COc1cccc(N2C(=O)CSC2c2cccc(Oc3ccccc3)c2)c1 (stereo unspecified)	> 100	> 100	10.2	12.3	40.4	> 100	> 100	41	17.6	11.4								
CC(C)=CCN1c2ccccc2NC(=O)CC1C (stereo unspecified)	> 100	> 100	> 100	> 100	> 100	> 100	> 100	> 100	> 100	> 100								
COc1cc(C2c3c(ccc4ccccc34)C(=O)C3CCC(=O)N32)cc(OC)c1OC (stereo unspecified)	> 50	> 50	> 50	> 50	> 50	> 50	> 50	> 50	> 50	> 50								
COC(=O)Cc1cc(O)c2c(c1O)C(=O)c1ccccc1C2=O	> 100	> 100	> 100	> 100	> 100	> 100	63.3	> 77.9	> 100	> 100								
CCc1n[nH]c(=O)n1CCCCCCCCCCCCn1c(CC)n[nH]c1=O	> 100	64.3	75.5	71.9	> 100	94.4	> 100	> 100	> 100	> 100								
CC(N=NNc1ccc(-c2nc3ccccc3[nH]2)cc1)C(=O)O (stereo unspecified)	> 100	> 100	> 100	79	90.6	> 100	> 100	> 100	> 100	> 100								
Cc1ccc(Nc2nc3[nH]ccc3c(=O)[nH]2)cc1	> 100	> 100	> 100	> 100	> 100	> 100	> 100	> 100	> 100	> 100								
C=CCSC1=N/C(=C\c2ccc(Cl)cc2)C(=O)N1CC=C	> 100	51.8	> 100	> 100	> 100	> 100	> 100	> 100	48.4	> 100								
COC1CC(N)(c2ccccc2)C(O)C(C)O1 (stereo unspecified)	> 100	> 100	> 100	> 100	> 100	> 100	> 100	> 100	> 100	> 100								
N#CN1C2CCC1CC(=O)C2	> 100	> 100	> 100	> 100	> 100	> 100	> 100	> 100	> 100	> 100								
Cc1ccc(C(=N)c2ccccc2Cc2cccc3ccccc23)c2ccccc12	> 100	> 100	> 100	> 100	> 100	> 100	> 100	> 100	> 100	> 100								
O=C(O)CCc1nc2c(n1-c1ccccc1)C(=O)c1ccccc1C2=O	> 100	> 100	> 100	> 100	> 100	> 100	> 100	> 100	> 100	> 100								
O=C1c2cccc([N+](=O)[O-])c2C(=O)N1Cc1ccccc1	> 100	> 100	> 100	> 100	> 100	> 100	> 100	> 100	> 100	> 100								
CCN(CCCOc1ccccc1)CCN(CC)CCCOc1ccccc1	22.3	> 100	24.5	34.9	46.8	40.6	45.5	31.5	26.6	15.5								
Fc1ccc(C(OCCN2CCN(CCCc3ccccc3)CC2)c2ccc(F)cc2)cc1	12	> 100	10.1	15.3	12.6	15.3	17.7	17.4	10	16.1								
CCCCN(CCCC)Cc1cc(Nc2ccnc3cc(Cl)ccc23)ccc1O	> 100	> 100	> 100		> 100	> 100	> 100		> 100	> 100	1.38	17.5	6.68	4.38	8.23	2.54	6.59	2.3
C[C@@]1(O)C2CC3CC1(c1ccccc1)CC(/C3=N/O)/C2=N\O (stereo partly specified)	> 100	> 100	> 100	> 100	> 100	> 100	> 100	> 100	> 100	> 100								
CCC/C(Cl)=N\OC(=O)Nc1ccc(F)cc1	31.5	3.85	8.97	> 100	> 62.3	41.2	38.2	24.7	5.49	4								
C=CCOC(=O)N1c2ccc(O[Si](C)(C)C(C)(C)C)cc2[C@@]23O[C@@]24[C@@H]1C#C/C=C\C#C[C@]3(O)C(OC)(OC)C[C@@H]4C	> 100	> 100	> 100	> 100	> 100	> 100	> 100	> 100	> 100	> 100								
